Experimental data taken from patent EP4644375A1, “SUBSTITUTED HYDROQUINOLINES FOR THE TREATMENT OF GLIOBLASTOMA MULTIFORME” (Molius Saglik Teknolojileri Anonim Sirketi, priority 2024, dated 2025).

Columns and labels:
U87-MG human glioma cell = assay: Cell proliferation analysis (MTT); assay type: cell-based; settings: for activity at 10 µM / inhibition at 10 µM: Homo sapiens, U-87 MG, 48 h; for activity at 10 µM / inhibition at 10 µM / Cell Proliferation (%): two days, MTT, 10 µM
Procedure: (§1) U87-MG and U138-MG human glioma cell, were incubated with 10% fetal bovine serum (FBS) (Gibco, 10500-064), 1% L-glutamine (Gibco, 25030-024), in a humidified incubator with 5% CO2 at 37 °C. The cells were contained in DMEM High Glucose (Gibco, 41966-029) supplemented with 1% penicillin-streptomycin (P/S) (Gibco 15140-122) solution. The cytotoxic effects of the target compounds on U87-MG and U138-MG cell lines were assessed using the MTT (Thiazolyl Blue Tetrazolium Bromide) method. 7×10^3 cells were seeded into a 96-well plate in 100 µl DMEM High Glucose 10% FBS and 1% P/S. 24 hours after cell incubation, each target compound was added at a dose of 10 µM and the drug treatment was carried out for two days. After the incubation period, 10 µL of MTT solution was added to each well (5 mg/ml in PBS). After 2 hours, MTT solutions were removed from the wells. Then, 100 µl DMSO was added, and mixed to dissolve the formazan crystals. Cell proliferation was analysed by measuring the absorbance of dissolved formazan at a wavelength of 570 nm.
(§2) IC50 values were determined using the same method as above wherein the cells were treated with the target compounds at different doses.

[1] = system: U138-MG human glioma cell; assay: Cell proliferation analysis (MTT); assay type: cell-based; settings: 10 µM, two days, MTT; for activity at 10 µM / inhibition at 10 µM: Homo sapiens, 48 h
Procedure: as §1, §2

SMILES | activity at 10 µM (U87-MG human glioma cell) [%] | inhibition at 10 µM (U87-MG human glioma cell) [%] | activity at 10 µM [1] [%] | inhibition at 10 µM [1] [%] | Cell Proliferation (%) (U87-MG human glioma cell) | Cell Proliferation (%) [1] [%] | top 5 target compounds whose treatment resulted in the lowest proliferation (U87-MG human glioma cell; ranking)
CS(=O)(=O)Oc1ccc2c(c1)CCC(=O)N2 [TR-G057, 2-oxo-1,2,3,4-tetrahydroquinolin-6-yl methanesulfonate] | 85 | 15 | 99 | 1 |  |  | 
CC(=O)OCC1OC(n2cc(COc3ccc4c(c3)CCC(=O)N4)nn2)[C@H](OC(C)=O)[C@@H]1OC(C)=O (stereo partly drawn) [TR-G058, (3R,4R)-2-(acetoxymethyl)-5-(4-(((2-oxo-1,2,3,4-tetrahydroquinolin-6-yl)oxy)methyl)-1H-1,2,3-triazol-1-yl)tetrahydrofuran-3,4-diyl diacetate] | 73 | 27 | 100 | 0 |  |  | 
O=C(COc1ccc2c(c1)CCC(=O)N2)N/N=C/c1ccccn1 [TR-G059, (E)-2-((2-oxo-1,2,3,4-tetrahydroquinolin-6-yl)oxy)-N'-(pyridin-2-ylmethylene)acetohydrazide] | 79 | 21 | 81 | 20 |  |  | 
O=C1CCc2cc(OC(=O)N3CCCC3)ccc2N1 [TR-G061, 2-oxo-1,2,3,4-tetrahydroquinolin-6-yl pyrrolidine-1-carboxylate] | 84 | 16 | 92 | 8 |  |  | 
CCCC(CCC)C(=O)Oc1ccc2c(c1)CCC(=O)N2 [TR-G062, 2-oxo-1,2,3,4-tetrahydroquinolin-6-yl 2-propylpentanoate] | 87 | 13 | 87 | 13 |  |  | 
CC(=O)c1ccc(NC(=O)COc2ccc3c(c2)CCC(=O)N3)cc1 [TR-G064, N-(4-acetylphenyl)-2-((2-oxo-1,2,3,4-tetrahydroquinolin-6-yl)oxy)acetamide] | 70 | 30 | 78 | 22 |  |  | 
O=C1CCc2cc(OC(=O)c3ccc(CCl)cc3)ccc2N1 [TR-G065, 2-oxo-1,2,3,4-tetrahydroquinolin-6-yl 4-(chloromethyl)benzoate] | 73 | 27 | 90 | 10 |  |  | 
CCCOc1ccc2c(c1)CCC(=O)N2 [TR-G068, 6-propoxy-3,4-dihydroquinolin-2(1H)-one] | 59 | 42 | 82 | 18 |  |  | 
O=C1CCc2cc(OCC3CC(c4ccc(Cl)cc4)=NO3)ccc2N1 (stereo not drawn) [TR-G070, 6-((3-(4-chlorophenyl)-4,5-dihydroisoxazol-5-yl)methoxy)-3,4-dihydroquinolin-2(1H)-one] | 68 | 33 | 79 | 21 |  |  | 
O=C1CCc2cc(OS(=O)(=O)c3ccc(C(F)(F)F)cc3)ccc2N1 [TR-G073, 2-oxo-1,2,3,4-tetrahydroquinolin-6-yl 4-(trifluoromethyl)benzenesulfonate] | 87 | 13 | 94 | 6 |  |  | 
O=C1CCc2cc(OCCCBr)ccc2N1 [TR-G074, 6-(3-bromopropoxy)-3,4-dihydroquinolin-2(1H)-one] |  | 15 |  | 19 | 85 | 81 | 
O=C(COc1ccc2c(c1)CCC(=O)N2)Nc1ccc(F)c(Cl)c1 [TR-G075, N-(3-chloro-4-fluorophenyl)-2-((2-oxo-1,2,3,4-tetrahydroquinolin-6-yl)oxy)acetamide] | 68 | 32 | 85 | 15 |  |  | 
Nc1ncc(/C=N/NC(=O)COc2ccc3c(c2)CCC(=O)N3)cn1 [TR-G076, (E)-N'-((2-aminopyrimidin-5-yl)methylene)-2-((2-oxo-1,2,3,4-tetrahydroquinolin-6-yl)oxy)acetohydrazide] | 97 | 3 | 92 | 8 |  |  | 
COc1ccc(NC(=O)COc2ccc3c(c2)CCC(=O)N3)cc1OC [TR-G077, N-(3,4-dimethoxyphenyl)-2-((2-oxo-1,2,3,4-tetrahydroquinolin-6-yl)oxy)acetamide] | 88 | 12 | 88 | 12 |  |  | 
O=C1CCc2cc(OCc3cn(-c4cccc5[nH]ncc45)nn3)ccc2N1 [TR-G078, 6-((1-(1H-indazol-4-yl)-1H-1,2,3-triazol-4-yl)methoxy)-3,4-dihydroquinolin-2(1H)-one] | 44 | 56 | 57 | 43 |  |  | top 5
CCOC(=O)CCn1cc(COc2ccc3c(c2)CCC(=O)N3)nn1 [TR-G079, ethyl 3-(4-(((2-oxo-1,2,3,4-tetrahydroquinolin-6-yl)oxy)methyl)-1H-1,2,3-triazol-1-yl)propanoate] | 94 | 6 | 112 | -12 |  |  | 
O=C1CCc2cc(OCc3cn(CCOCc4ccccc4)nn3)ccc2N1 [TR-G080, 6-((1-(2-(benzyloxy)ethyl)-1H-1,2,3-triazol-4-yl)methoxy)-3,4-dihydroquinolin-2(1H)-one] | 79 | 21 | 71 | 29 |  |  | 
O=C1CCc2cc(OC(=O)c3cccc([N+](=O)[O-])c3)ccc2N1 [TR-G081, 2-oxo-1,2,3,4-tetrahydroquinolin-6-yl 3-nitrobenzoate] | 65 | 35 | 108 | -8 |  |  | 
CCCn1cc(COc2ccc3c(c2)CCC(=O)N3)nn1 [TR-G082, 6-((1-propyl-1H-1,2,3-triazol-4-yl)methoxy)-3,4-dihydroquinolin-2(1H)-one] | 74 | 26 | 89 | 11 |  |  | 
O=C1CCc2cc(OCc3cc(-c4ccc(Cl)cc4)no3)ccc2N1 [TR-G084, 6-((3-(4-chlorophenyl)isoxazol-5-yl)methxy)-3,4-dihydroquinolin-2(1H)-one] |  | 35 |  | 30 | 65 | 71 | 
COc1ccc(S(=O)(=O)Oc2ccc3c(c2)CCC(=O)N3)cc1OC [TR-G085, 2-oxo-1,2,3,4-tetrahydroquinolin-6-yl 3,4-dimethoxybenzenesulfonate] | 53 | 47 | 71 | 29 |  |  | 
O=C1CCc2cc(OCc3cn(Cc4ccc(F)cc4)nn3)ccc2N1 [TR-G086, 6-((1-(4-fluorobenzyl)-1H-1,2,3-triazol-4-yl)methoxy)-3,4-dihydroquinolin-2(1H)-one] | 79 | 21 | 79 | 21 |  |  | 
O=C1CCc2cc(OCC(=O)N3CCN(c4ccc(C(F)(F)F)cc4)CC3)ccc2N1 [TR-G087, 6-(2-oxo-2-(4-(4-(trifluoromethyl)phenyl)piperazin-1-yl)ethoxy)-3,4-dihydroquinolin-2(1H)-one] | 58 | 42 | 55 | 45 |  |  | 
O=C(COc1ccc2c(c1)CCC(=O)N2)Nc1ccc2ncccc2c1 [TR-G089, 2-((2-oxo-1,23,4-tetrahydroquinolin-6-yl)oxy)-N-(quinolin-6-yl)acetamide] | 67 | 33 | 67 | 33 |  |  | 
CC(=O)c1ccc(-n2cc(COc3ccc4c(c3)CCC(=O)N4)nn2)cc1 [TR-G093, 6-((1-(4-acetylphenyl)-1H-1,2,3-triazol-4-yl)methoxy)-3,4-dihydroquinolin-2(1H)-one] | 55 | 45 | 63 | 38 |  |  | 
COc1cc(NC(=O)COc2ccc3c(c2)CCC(=O)N3)cc(OC)c1OC [TR-G094, 2-((2-oxo-1,2,3,4-tetrahydroquinolin-6-yl)oxy)-N-(3,4,5-trimethoxyphenyl)acetamide] | 78 | 22 | 80 | 20 |  |  | 
O=C1CCc2cc(OC(=O)Nc3ccccc3Cl)ccc2N1 [TR-G096, 2-oxo-1,2,3,4-tetrahydroquinolin-6-yl (2-chlorophenyl)carbamate] | 75 | 25 | 70 | 30 |  |  | 
CC(C)CCN1C(=O)CCc2cc(OCCCCc3nnnn3C3CCCCC3)ccc21 [TR-G101, 6-(4-(1-cyclohexyl-1H-tetrazol-5-yl)butoxy)-1-isopentyl-3,4-dihydroquinolin-2(1H)-one] | 76 | 24 | 76 | 24 |  |  | 
CCOC(=O)CN1C(=O)CCc2cc(OCCCCc3nnnn3C3CCCCC3)ccc21 [TR-G102, ethyl 2-(6-(4-(1-cyclohexyl-1H-tetrazol-5-yl)butoxy)-2-oxo-3,4-dihydroquinolin-1(2H)-yl)acetate] | 66 | 35 | 49 | 51 |  |  | 
